How the values were obtained:
[1] = in vivo; conditions: female, Balb/c, mouse, plasma, po
[2] = molecular target: Btk (Homo sapiens (Human), UniProt Q06187); assay: Btk acellular kinase assay (TR-FRET); conditions: Btk IC50 relative to compound 4
[3] = tested on: DHL-6 cells; assay: DHL-6 cell growth (Alamar Blue assay); assay type: cell-based; conditions: 3E4 DHL-6 cells/well in complete media, 0.1% DMSO

Btk, sequence (Q06187 whole entry): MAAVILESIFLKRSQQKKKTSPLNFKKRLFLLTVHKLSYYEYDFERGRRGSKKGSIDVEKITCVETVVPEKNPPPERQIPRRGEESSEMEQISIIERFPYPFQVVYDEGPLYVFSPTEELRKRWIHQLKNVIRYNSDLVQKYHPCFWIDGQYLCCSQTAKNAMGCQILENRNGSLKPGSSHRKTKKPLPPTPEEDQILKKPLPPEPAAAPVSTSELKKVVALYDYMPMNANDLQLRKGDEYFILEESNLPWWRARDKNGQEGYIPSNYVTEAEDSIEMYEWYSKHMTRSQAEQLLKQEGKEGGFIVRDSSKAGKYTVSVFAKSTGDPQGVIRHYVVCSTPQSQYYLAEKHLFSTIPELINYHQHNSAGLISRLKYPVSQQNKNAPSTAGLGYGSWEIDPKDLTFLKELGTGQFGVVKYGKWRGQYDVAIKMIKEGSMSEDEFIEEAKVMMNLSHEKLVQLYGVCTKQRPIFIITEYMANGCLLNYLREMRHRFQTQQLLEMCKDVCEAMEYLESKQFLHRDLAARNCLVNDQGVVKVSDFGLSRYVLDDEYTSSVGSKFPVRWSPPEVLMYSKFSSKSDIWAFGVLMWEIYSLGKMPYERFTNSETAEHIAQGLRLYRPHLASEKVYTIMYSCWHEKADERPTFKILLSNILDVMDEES

Structure (SMILES): C=CC(=O)N1CCCC(n2nc(-c3ccc(Oc4ccccc4)cc3)c3c(N)ncnc32)C1 (stereo not drawn) [Compound 4, 1-(3-(4-amino-3-(4-phenoxyphenyl)-1H-pyrazolo[3,4-d]pyrimidin-1-yl)piperidin-1-yl)prop-2-en-1-one]
- Tmax [1]: 2 h

Structure (SMILES): C/C=C/C(=O)N1CCCC(n2nc(-c3ccc(Oc4ccccc4)cc3)c3c(N)ncnc32)C1 (stereo not drawn) [Compound 5, (E)-1-(3-(4-amino-3-(4-phenoxyphenyl)-1H-pyrazolo[3,4-d]pyrimidin-1-yl)piperidin-1-yl)but-2-en-1-one]
- fold less potent than 4 [2]: 28 fold

Structure (SMILES): CN(C)C/C=C/C(=O)N1CCCC(n2nc(-c3ccc(Oc4ccccc4)cc3)c3c(N)ncnc32)C1 (stereo not drawn) [Compound 15, (E)-1-(3-(4-amino-3-(4-phenoxyphenyl)-1H-pyrazolo[3,4-d]pyrimidin-1-yl)piperidin-1-yl)-4-(dimethylamino)but-2-en-1-one]
- growth of DHL-6 cells [3]: inhibit growth

Source: patent US8497277B2, “Inhibitors of Bruton's tyrosine kinase” (Pharmacyclics, Inc., priority 2006, dated 2013)
